ChEMBL document CHEMBL1201862, “PubChem BioAssay data set” (2004)
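Interpolation was linear, between the two tested concentrations surrounding the appropriate level; five concentrations were tested over 48 hours in 96-well plates. The concentration for 50% growth inhibition is given as GI50.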 Active and inactive are the calls of the source. No stated cut-off is given here; in the data, active = GI50 up to about 1.1 µM and inactive = higher.

Legend:
Test in all cases: DTP human tumour cell line panel, 48 h
LOX IMVI = tested on: LOX IMVI
M14 = tested on: M14
HOP-92 = tested on: HOP-92
SNB-19 = tested on: SNB-19
Hs-578T = tested on: Hs-578T
MCF7 = tested on: MCF7
K562 = tested on: K562
SF-268 = tested on: SF-268
SNB-75 = tested on: SNB-75
U-251 = tested on: U-251
NCI-H522 = tested on: NCI-H522
MOLT-4 = tested on: MOLT-4
ACHN = tested on: ACHN
BT-549 = tested on: BT-549
786-0 = tested on: 786-0
SK-MEL-5 = tested on: SK-MEL-5
A498 = tested on: A498
PC-3 = tested on: PC-3
SW-620 = tested on: SW-620

Structure (SMILES) | GI50 (LOX IMVI) | GI50 (M14) | GI50 (HOP-92) | GI50 (SNB-19) | GI50 (Hs-578T) | GI50 (MCF7) | GI50 (K562) | GI50 (SF-268) | GI50 (SNB-75) | GI50 (U-251) | GI50 (NCI-H522) | GI50 (MOLT-4) | GI50 (ACHN) | GI50 (BT-549) | GI50 (786-0) | GI50 (SK-MEL-5) | GI50 (A498) | GI50 (PC-3) | GI50 (SW-620)
c1ccc2c3c(ccc2c1)CSCc1ccc2ccccc2c1-3 | > 100 µM (inactive) | > 100 µM (inactive) | 22.2 µM (inactive) | > 100 µM (inactive) | > 100 µM (inactive) | > 100 µM (inactive) | > 100 µM (inactive) | > 100 µM (inactive) | > 100 µM (inactive) | > 100 µM (inactive) | > 100 µM (inactive) | 36.6 µM (inactive) | > 100 µM (inactive) | > 100 µM (inactive) | > 100 µM (inactive) | > 100 µM (inactive) | > 100 µM (inactive) | > 100 µM (inactive) | –
COc1ccc(OCc2ccc3nc(-c4ccccc4)c(Cl)nc3c2)cc1 | 84.5 µM (inactive) | 33.9 µM (inactive) | 14.5 µM (inactive) | 26.5 µM (inactive) | 23.4 µM (inactive) | 37.6 µM (inactive) | 0.0889 µM (active) | 25.2 µM (inactive) | 36 µM (inactive) | 12.3 µM (inactive) | 10.7 µM (inactive) | 34.4 µM (inactive) | 27.9 µM (inactive) | 0.018 µM (active) | 10.6 µM (inactive) | 6.89 µM (inactive) | 26.4 µM (inactive) | 40.9 µM (inactive) | 43.2 µM (inactive)
O=CC1C(Cl)=Nc2nc3ccccc3n2C1c1ccc([N+](=O)[O-])cc1 (stereo unspecified) | 2.18 µM (inactive) | 7.93 µM (inactive) | 5.45 µM (inactive) | 16 µM (inactive) | 57.7 µM (inactive) | 3.97 µM (inactive) | 1.8 µM (inactive) | 6.84 µM (inactive) | 1.77 µM (inactive) | 5.52 µM (inactive) | 3.71 µM (inactive) | 1.71 µM (inactive) | 2.43 µM (inactive) | < 0.01 µM (active) | 4.3 µM (inactive) | 6.68 µM (inactive) | 24.7 µM (inactive) | 4.89 µM (inactive) | 4.8 µM (inactive)
